Source: a melting point compilation (Tetko et al.; mined from patent text by program, amines drawn as free bases though some values may be those of a salt)

Row | Structure (SMILES) | melting point [°C]
1 | CCCC(Oc1cncc(Cl)c1)C(=O)O (configuration not stated) | 89 to 91
2 | CCCCCCCCCCCC(=O)c1ccc2c(Cl)cccc2c1O | 86 to 87
3 | CCCCC(=O)NC(C(=O)OCC)=C(N)SCC | 110
4 | CC1(C)c2c(ccc3cc(C(N)=O)c(Cn4cncn4)cc23)OC1O (configuration not stated) | 223 to 225
5 | O=C(NC1(C2CC2)CC1)c1c(NC(=O)c2cc(C(F)(F)F)nn2-c2ncccc2Cl)c(Br)cc2cn[nH]c12 | 212 to 214
6 | CCCN1CCc2c(c(Br)cc([N+](=O)[O-])c2NC(C)=O)C1 | 166 to 167
7 | C=CC(C)=CC=C(C(C)=CC(=O)OC1C(CO)OC(OC)C(O)C1O)c1c(C)cc(OC)c(C)c1C (configuration not stated) | 159 to 160
8 | C=CCN(CC=C)c1nc(NC(=O)OCc2ccccc2)n2oc(=O)nc2n1 | 171 to 173
9 | CCOP(=S)(OCC)Oc1nsc(SCc2ccccc2)n1 | < 50
10 | O=S1(=O)NC(C2CC2)Nc2ccc(S(=O)(=O)N3CCCCC3)cc21 (configuration not stated) | 228 to 231
11 | CC(=O)OC1CSC(Oc2ccc(C)nc2-c2ccoc2)C(OC(C)=O)C1OC(C)=O (configuration not stated) | 117
12 | C=C(C)C1CCC2(CO)CCC3(C)C(CCC4C5(C)CCC(O)C(C)(CO)C5CCC43C)C12 (configuration not stated) | 256 to 260
13 | COC1=C(C)C(=O)C2=C(C1=O)C(COC(N)=O)C1(OC)C3NC3CN21 (configuration not stated) | 161
14 | CC(=O)[C@@H]1C/C=C(/C)C/C=C/[C@H](C)[C@H](O[Si](C)(C)C(C)(C)C)[C@@H](C)C(=O)C(C)(C)[C@@H](O[Si](C)(C)C(C)(C)C)CC(=O)O1 | 85
15 | CCN(C)c1ccc(Cn2nnc(-c3ccc(OC(=O)C(C)(C)C)cc3)n2)cc1 | 122 to 125
16 | C#CCCCc1c2c3c(nc(N)c2nn1CCC)CCCC3 | 167 to 169
17 | COc1cc2cc(-c3cc4cc(OC)c(OC)c(C(C)C)c4cc3C)c(C)cc2c(C(C)C)c1OC | 215 to 216
18 | COc1ccc(Cc2oc3c(Cl)cc(CCC(=O)O)c(O)c3c2C)cc1 | 149 to 151
19 | CCOC(=O)C(=CNc1cnsn1)C(=O)c1cc(F)c(F)c(F)c1F | 81 to 83
20 | CCCCC(CC)Cn1c(C)cc(C)c(C(=O)O)c1=O (configuration not stated) | 89 to 91
21 | CN1CCN(C2=Nc3cc(F)ccc3Nc3nn(C)nc32)CC1 | 195 to 197
22 | CCC(C)C(NS(=O)c1ccc(C)cc1)C1(C(=O)NC)SCCS1 (configuration not stated) | 147 to 154
23 | CNC(=O)CCc1ccc(F)cc1F | 90 to 91
24 | Nc1c(Cl)cc(C(O)CNCCCCCCOCCCc2ccccn2)cc1Cl (configuration not stated) | 38 to 41
25 | CCCN(C)S(=O)(=O)c1cc(-n2c(=O)cc(C(F)(F)F)n(C)c2=O)ccc1Cl | 144 to 145
26 | C#Cc1cc2c(=O)nc(CCCC)[nH]c2cc1F | 218
27 | CC1(C)OC(=S)Nc2ccc(-c3cc(C#N)cs3)cc21 | 258 to 259
28 | CCCCOc1cc(CCS(=O)(=O)NC(=O)OCC(C)(C)C)n(Cc2ccc(Cl)cc2Cl)n1 | 116 to 118

Row | Structure (SMILES) | melting point [°C]
29 | CCCCCCCCCCCCCCCCOCC1OCCCC1=O (configuration not stated) | 42 to 43.5
30 | CC(C)(C)OC(=O)NCC1C2CN(C(=O)C(O)(c3ccccc3)C3CCCC3)CC12 (configuration not stated) | 76 to 79.6
31 | CCCc1c(OCc2cccn3c(=O)c(C(=O)O)cnc23)ccc(C(C)=O)c1O | 170 to 172
32 | C=CC(=O)N1Cc2ccccc2SC(Cl)C1 (configuration not stated) | 66 to 68
33 | CC(=O)OCc1cccc(Cl)c1NS(=O)(=O)c1nc2nc(C)cc(C)n2n1 | 214 to 217
34 | [N-]=[N+]=CC(=O)CC1CCCCC1 | 58 to 62
35 | CC(O)(CCSc1cc(C(C)(C)C)c(O)c(C(C)(C)C)c1)CC(=O)CCSc1cc(C(C)(C)C)c(O)c(C(C)(C)C)c1 (configuration not stated) | 108 to 110
36 | Cn1nnnc1SCCCS(=O)(=O)c1ccccn1 | 98.5 to 101
37 | Cc1nnc(-c2ccc3occ(-c4cnn(C)c4)c3c2)o1 | 147 to 148
38 | CNC(=O)N1CC(=O)Nc2ccc([N+](=O)[O-])cc2C1c1ccccc1 (configuration not stated) | 176 to 180
39 | C#Cc1cc(Nc2ncnc3cnc(NC(=O)CP(=O)(OCC)OCC)cc23)ccc1F | 103 to 106
40 | Cc1cc(C)cc(Oc2ccc([N+](=O)[O-])cc2S(=O)(=O)N2CCN(C(=O)OC(C)(C)C)CC2)c1 | 232 to 233
41 | CN(CCC(=O)O)C(=O)N(c1ccc(Cl)cc1)C(C)(C)C | 90 to 95
42 | CC(=O)Nc1ccc(C=CC(=O)N2CCc3c([nH]c4ccccc34)C2c2ccc3c(c2)OCO3)cc1 (configuration not stated) | 185
43 | O=C1OCCN1CCN1CCN(Cc2ccccc2)CC1 | 82 to 84
44 | Cc1cc(CCCCCCCOc2ccc(C(N)=O)cc2)on1 | 153 to 154
45 | CCc1ccc(CC(C)(C)NC(C)=O)cc1 | 90 to 92
46 | O=C1NC(=O)c2cc(CCCCCN3CCC(c4nc(-c5ccncc5)c(-c5ccc(Cl)c(Cl)c5)[nH]4)CC3)ccc21 | 129 to 134
47 | CC(C)(C)c1cc([PH](=O)O)cc(C(C)(C)C)c1O | 106 to 111
48 | N#Cc1ccc(N2CC(C(=O)O)OC2=O)cc1 (configuration not stated) | 204
49 | COc1ccc(C(C#N)CNC(N)=O)cc1OC1CCCC1 (configuration not stated) | 55 to 61
50 | O=C(Nc1cc(Cl)c(N2CCOCC2)c(Cl)c1)c1ccc(F)c(OCc2cccnc2)c1 | 209 to 211
51 | CSc1ccc2nc(-c3cccc(C)c3)c(-c3ccnc(NC4CCCCC4)c3)n2n1 | 150 to 151
52 | CCc1ccc(C(N)=O)c([N+](=O)[O-])c1 | 175
53 | Cn1ncnc1COc1nc2c(cc1C(C)(C)C)nnn2-c1ccccc1F | 115 to 117
54 | CC(C)(C)C(O)CN1CCC(CCC(=O)c2cc(Cl)c(N)[nH]c2=O)CC1 (configuration not stated) | 211
55 | CCC(C)(C)NC(=S)Nc1cc(F)cc(Br)c1 | 123 to 124

Results, then the molecule that gave them:

Row | melting point [°C] | Structure (SMILES)
56 | 137 to 138 | CC(C)(C)c1ccc(CO)cc1NC(=O)CC1c2ccccc2Oc2ccccc21
57 | 184 to 185 | O=C(N[C@H](Cc1ccc(C(F)(F)F)cc1)[C@@H](O)c1ccc(Oc2ccccc2)cc1)c1ccc(F)c2ccccc12 (racemic)
58 | 132 | O=c1[nH]c2ccc(Cl)cc2n1CCCN1CCN(C(c2ccccc2)c2ccccc2)CC1
59 | 120 | N#CN=C(Nc1cccc(-c2cccc(S(=O)(=O)NC(CC(=O)O)c3ccccc3)c2)c1)NC1CC1 (configuration not stated)
60 | 131 to 133 | CC(c1ccccc1N1CCCCC1)C(C(N)=O)c1ccc(C(=O)N2CCCCC2)cc1 (configuration not stated)
61 | 68 to 70 | CCOC(=O)Cc1ccc2c(c1)sc1cc(Cl)ccc12
62 | 202 to 203 | O=C(O)COc1ccc2cc(-c3oc4ccccc4c3-c3ccccc3)ccc2c1-c1ccccc1
63 | 227 to 228 | O=c1nc(-c2cccc(SCc3ccccc3)n2)sc2ccccc12
64 | 170 | Cn1c(/C=C/C(O)CC(O)CC(=O)O)c(-c2ccccc2)c2ccccc2c1=O (configuration not stated)
65 | 215 | NC(Cc1nc2cc3ccccc3cc2nc1CP(=O)(O)O)C(=O)OCc1ccccc1 (configuration not stated)
66 | 153 to 155 | Nc1nc(N)nc(C2(c3ccccc3)CCCCC2)n1
67 | 248 to 249 | CC1=c2c(cc3c(c2C)-c2ccccc2N=3)N=C1c1nc(C)no1
68 | 132 to 135 | COC(=O)c1cscc1NC(=O)COc1ccc(-c2ccccc2)cc1
69 | 120 to 124 | CC(C)(C)OC(=O)NCCCCO/N=C(\C(=O)O)c1csc(NC(c2ccccc2)(c2ccccc2)c2ccccc2)n1
70 | 45 to 48 | O=CO[C@H]1CC[C@H](NC(=O)OCc2ccccc2)C1 (relative stereo)
71 | 152 to 154 | CCC1c2ccccc2-c2ccccc21
72 | 226 to 228 | O=S(=O)(Nc1cccnc1Nc1ccccc1)c1ccc(O)cc1
73 | 119 to 123 | Cc1ccccc1C(O)C1CCN(C)CC1 (configuration not stated)
74 | 302 | O=C(NC(Cc1ccccc1)C(=O)O)c1ccc(-c2ccc(OCc3ccccc3)cc2)cc1 (configuration not stated)
75 | 121 to 122 | CCOC(=O)C=Cc1ccc(OC(C)c2nc(-c3ccccc3)oc2C)c(OC)c1 (configuration not stated)
76 | 145 | O=C(O)COc1cccc2c1CCCC2CCOC(=O)N(c1ccccc1)c1ccccc1 (configuration not stated)

Row | melting point [°C] | Structure (SMILES)
77 | 115 to 118 | COc1ccc(-c2ccc(C(C)=O)cc2Cl)c(OC)c1
78 | 61 to 63 | CCOC1CCC(=O)N1S(=O)(=O)C=Cc1ccccc1 (configuration not stated)
79 | 193 to 195 | COc1cc(Nc2nc(-c3ccccc3)cs2)ccc1-c1cnco1
80 | 46 to 48 | CN(C)[C@H]1CCN(c2c(-c3ccccc3)cc(C#N)c3oc(C(C)(C)C)cc23)C1
81 | 50 | COC(=O)CCC/C=C/c1ccc2cc(C)ccc2c1
82 | 155 to 157 | Cc1ccccc1C(=O)c1ccc(C(=O)O)o1
83 | 152 to 154 | COc1cc2c(cc1OC)C(C=Cc1ccc(N)cc1)=NNC(C)C2 (configuration not stated)
84 | 82 to 84 | CC(O)(CCO)c1ccc(-c2ccc(F)cc2F)cc1 (configuration not stated)
85 | 124 to 125 | CC(=O)c1ccccc1OCc1cccc(S(N)(=O)=O)c1
86 | 205 to 206 | CN1CCC(=C2c3ccccc3CC(O)c3ccccc32)CC1 (configuration not stated)
87 | 71 to 72 | CC(C)(C)OC(=O)CC[C@H](NC(=O)c1ccc(NCCc2ccccc2)cc1F)C(=O)OC(C)(C)C
88 | 120 | CCOC(=O)C1CCN(C(=O)COc2cc(-c3ccccc3)nc3ccccc23)CC1
89 | 138 to 139 | CCOC(CNC(=O)N(N=Cc1ccccc1)c1cc(Cl)c(Cc2ccc(Cl)cc2)c(Cl)c1)OCC
90 | 172 to 173 | CS(=O)(=O)c1ccc(-c2c(Br)c3cccccc-3c2-c2ccccc2)cc1
91 | 62 | CN1CCC(OC(c2cccc(SCC3=NCCN3)c2)c2nc3ccccc3[nH]2)CC1 (configuration not stated)
92 | > 200 | O=C1Cc2cc3c(cc2C(c2ccccc2)=NN1c1ccc([N+](=O)[O-])cc1)OCO3
93 | 114 to 117 | NCc1ccc2ccnc(N)c2c1
94 | 119 to 120 | O=C(NCc1cccs1)C1(c2ccc(Cl)cc2)CCCC1
95 | 203 to 205 | Oc1ccc(-c2cc3cc(Br)cc(Br)c3o2)cc1
96 | 207 | O=C(Cc1ccc(F)cc1)Nc1cccc2nc(N[C@@H]3CCc4ccccc43)ccc12
97 | 158 to 160 | COc1ccc(C(=O)c2cc3c(ccc4ccccc43)oc2=O)cc1
